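Five compound concentrations were applied to cells in 96-well plates for 48 hours; endpoints were derived by simple linear interpolation of the resulting dose-response curve. GI50: concentration for 50% inhibition of growth.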 Active and inactive are the calls of the source. No stated cut-off is given here; in the data, active = GI50 up to about 1.1 µM and inactive = higher.
Assays:
Assay in all cases: NCI-60 cell line screen, 48 h
[1] = test system: MOLT-4
[2] = test system: HCC 2998
[3] = test system: SK-MEL-5
[4] = test system: SN12C
[5] = test system: SR
[6] = test system: TK-10
[7] = test system: RPMI-8226
[8] = test system: COLO 205
[9] = test system: SK-MEL-2
[10] = test system: NCI-H522
[11] = test system: HCT-15
[12] = test system: UACC-257
[13] = test system: NCI-H23
[14] = test system: CAKI-1
[15] = test system: IGROV-1
[16] = test system: MCF7
[17] = test system: MDA-N
[18] = test system: DU-145
[19] = test system: LOX IMVI
[20] = test system: HT-29
[21] = test system: EKVX
[22] = test system: NCI-H226
[23] = test system: KM12
[24] = test system: SNB-75
[25] = test system: SK-OV-3
[26] = test system: SF-539
[27] = test system: BT-549
[28] = test system: A549
[29] = test system: RXF 393
[30] = test system: HCT-116
[31] = test system: Hs-578T
[32] = test system: HL-60
[33] = test system: U-251
[34] = test system: SF-268
[35] = test system: MDA-MB-435
[36] = test system: Malme-3M
[37] = test system: CCRF-CEM
[38] = test system: K562
[39] = test system: PC-3
[40] = test system: HOP-62
[41] = test system: NCI-H460
[42] = test system: SNB-19
[43] = test system: SF-295
[44] = test system: HOP-92
[45] = test system: OVCAR-5
[46] = test system: OVCAR-4
[47] = test system: ACHN
[48] = test system: A498
[49] = test system: SK-MEL-28
[50] = test system: SW-620
[51] = test system: MDA-MB-231
[52] = test system: OVCAR-3
[53] = test system: 786-0
[54] = test system: M14
[55] = test system: T47D
[56] = test system: NCI/ADR-RES
[57] = test system: UACC-62
[58] = test system: UO-31
[59] = test system: OVCAR-8

Measured: GI50

COc1ccc(SCc2cc(OC)c(OC)c(OC)c2)cc1OC
34 µM: [11]
inactive: [1] 46.2 µM | [2] 50.9 µM | [3] 15.8 µM | [4] > 100 µM | [5] 53.8 µM | [6] > 91.4 µM | [7] 33.3 µM | [8] 50.4 µM | [9] 23 µM | [10] 53.6 µM | [12] 45.6 µM | [13] 27.5 µM | [14] 44.5 µM | [15] 80.4 µM | [16] 28.8 µM | [17] 24.5 µM | [18] > 100 µM | [19] 51.4 µM | [20] 67.6 µM | [21] 43.4 µM | [22] 51.6 µM | [23] 37.5 µM | [24] 17.7 µM | [25] 50.1 µM | [26] > 80.2 µM | [27] 30 µM | [28] 43.8 µM | [29] > 95.5 µM | [30] 61.7 µM | [31] 54 µM | [32] 30.8 µM | [33] 53.8 µM | [34] > 100 µM | [35] 11.2 µM | [36] 55.2 µM | [37] 64.9 µM | [38] 42.9 µM | [39] 31.3 µM | [40] > 100 µM | [41] > 79.6 µM | [42] > 81.1 µM | [43] 45.7 µM | [44] 25.6 µM | [45] > 94.6 µM | [46] 22 µM | [47] 51.8 µM | [48] 40.9 µM | [49] > 73.8 µM | [50] 82.6 µM | [51] 57 µM | [52] > 56 µM | [53] > 100 µM | [54] 64.1 µM | [55] 13.4 µM | [56] 32.4 µM | [57] 38 µM | [58] 27.9 µM | [59] > 80.2 µM

COC(=O)[C@@H]1C=C[C@H](OC2OC(COC(C)=O)C(OC(C)=O)C(OC(C)=O)C2OC(C)=O)n2c(=O)n(-c3ccccc3)c(=O)n21 (stereo not given in full)
active: [10] 0.507 µM | [32] 1.1 µM
inactive: [1] 2.13 µM | [2] 8 µM | [3] 2.56 µM | [4] 2.69 µM | [5] 1.82 µM | [6] 1.79 µM | [7] 1.47 µM | [8] 1.85 µM | [9] 2.25 µM | [12] 2.13 µM | [13] 5.3 µM | [14] 1.2 µM | [15] 3.87 µM | [16] 2.35 µM | [17] 2.57 µM | [18] 4.75 µM | [19] 1.56 µM | [20] 1.88 µM | [21] 5.9 µM | [22] 12.2 µM | [23] 5.5 µM | [24] 4.06 µM | [25] 15.9 µM | [26] 2.74 µM | [27] 2.29 µM | [28] 14.7 µM | [29] 1.95 µM | [30] 1.86 µM | [31] 17.3 µM | [33] 2.8 µM | [34] 2.51 µM | [35] 5.14 µM | [36] 2.01 µM | [37] 1.48 µM | [38] 1.61 µM | [39] 2.77 µM | [40] 14.5 µM | [41] 14 µM | [42] 11.4 µM | [43] 10.8 µM | [44] 1.77 µM | [45] 6.27 µM | [46] 1.77 µM | [47] 1.72 µM | [48] 7.46 µM | [49] 2.33 µM | [50] 1.79 µM | [51] 2.7 µM | [52] 1.74 µM | [53] 1.41 µM | [54] 2.36 µM | [55] 2.57 µM | [56] 6.92 µM | [57] 3.1 µM | [58] 2.24 µM | [59] 2.55 µM
1.84 µM: [11]

C=CC[C@@]1(OC(C)=O)C(=O)C(=O)OC1C1COC(C)(C)O1 (stereo not given in full)
15 µM: [11]
inactive: [1] 14.3 µM | [2] 20.7 µM | [3] 16.6 µM | [4] 17.6 µM | [5] 15.2 µM | [6] 16.3 µM | [7] 12.4 µM | [8] 12.9 µM | [9] 21.6 µM | [10] 6.12 µM | [12] 16.3 µM | [13] 20.3 µM | [14] 2.08 µM | [15] 18.6 µM | [16] 17.3 µM | [17] 16.5 µM | [18] 24.2 µM | [19] 6.17 µM | [20] 19.3 µM | [21] 16.4 µM | [22] 35.3 µM | [23] 15.7 µM | [24] 31.8 µM | [25] 42.5 µM | [26] 25.1 µM | [27] 21.1 µM | [28] 24.1 µM | [29] 16.3 µM | [30] 13.1 µM | [31] 31 µM | [32] 10.8 µM | [33] 16.9 µM | [34] 19.5 µM | [35] 16.8 µM | [36] 17.2 µM | [37] 6.04 µM | [38] 15.3 µM | [39] 20.4 µM | [40] 49.4 µM | [41] 17.9 µM | [42] 70.5 µM | [43] 32.4 µM | [44] 14.6 µM | [45] 19.8 µM | [46] 18.6 µM | [47] 16.6 µM | [48] 21.9 µM | [49] 18.8 µM | [50] 11.9 µM | [51] 15.8 µM | [52] 17.1 µM | [53] 11.7 µM | [54] 15.7 µM | [55] 16 µM | [56] 25.3 µM | [57] 16.5 µM | [58] 17.6 µM | [59] 20.1 µM

CC(CSc1nc2c(c(=N)n1-c1ccccc1)c(=S)n(-c1ccccc1)c(=S)n2-c1ccccc1)CN(C)C (stereo not given)
1.55 µM: [11]
inactive: [2] 1.32 µM | [3] 2.05 µM | [4] 1.81 µM | [6] 1.69 µM | [8] 1.83 µM | [9] 2.45 µM | [12] 1.79 µM | [13] 2.2 µM | [14] 1.61 µM | [15] 1.4 µM | [17] 1.91 µM | [18] 1.66 µM | [20] 1.95 µM | [21] 1.66 µM | [22] 6.38 µM | [23] 2.25 µM | [24] 1.78 µM | [25] 4.06 µM | [26] 3.05 µM | [27] 1.78 µM | [28] 1.82 µM | [29] 1.59 µM | [30] 1.67 µM | [31] 2.5 µM | [33] 1.82 µM | [34] 1.71 µM | [35] 1.72 µM | [36] 1.71 µM | [39] 1.87 µM | [40] 1.88 µM | [41] 1.97 µM | [42] 4.65 µM | [43] 6.22 µM | [44] 1.56 µM | [45] 13.6 µM | [46] 1.76 µM | [47] 1.76 µM | [48] 2.8 µM | [49] 2.12 µM | [50] 1.79 µM | [51] 1.87 µM | [52] 1.71 µM | [53] 1.15 µM | [54] 1.86 µM | [55] 2.67 µM | [56] 3.08 µM | [57] 1.7 µM | [59] 1.6 µM
active: [1] 0.931 µM | [5] 0.558 µM | [7] 0.335 µM | [10] 1.11 µM | [16] 0.313 µM | [19] 1.05 µM | [32] 0.615 µM | [37] 0.289 µM | [38] 1.07 µM

Source: ChEMBL document CHEMBL1201862, “PubChem BioAssay data set” (2004)
